Laboratory results: ChEMBL document CHEMBL4402608 (J Med Chem, 2020)
pEC50, pIC50: −log10 of the molar value.

Experiments:
Type in all cases: cell-based
[1] = biological target: T1, D(2) dopamine receptor (Homo sapiens, UniProt P14416); assay: Antagonist activity at human D2R expressed in CHOK1 cells assessed as inhibition of dopamine-induced beta-arrestin recruitment measured after 120 mins by beta-galactosidase based PathHunter assay; conditions: for pIC50: read-out: IC50
[2] = biological target: T1, D(2) dopamine receptor; assay: Agonist activity at human D2R expressed in CHOK1 cells assessed as induction of beta-arrestin recruitment measured after 90 mins by beta-galactosidase based PathHunter assay; conditions: for pEC50: read-out: EC50
[3] = biological target: D(3) dopamine receptor (Homo sapiens, UniProt P35462); assay: Agonist activity at human D3R expressed in CHOK1 cells assessed as induction of beta-arrestin recruitment measured after 90 mins by beta-galactosidase based PathHunter assay; conditions: for pEC50: read-out: EC50

SMILES | pIC50 [1] | pEC50 [2] | EC50 [2] | pEC50 [3] | other results
COc1ccc(C(=O)N2CCN(CCOc3ccccc3)CC2)cc1 | < 4.00 | 5.64 | – | – | –
CCc1ccc(OCCN2CCN(C(=O)c3cc4ccccc4[nH]3)CC2)cc1 | < 4.30 | – | Not Active | – | –
CCc1ccc(OCCN2CCN(C(=O)c3ccc(OC)cc3)CC2)cc1 | < 4.30 | – | Not Active | 5.59 | –
COc1ccc(OCCN2CCN(S(=O)(=O)c3ccc(OC)cc3)CC2)cc1 | – | < 4.00 | – | – | IC50 [1]: Not Active; EC50 [3]: Not Active
CC(C)(C)c1ccc(OCCN2CCN(C(=O)c3cc4ccccc4[nH]3)CC2)cc1 | < 4.00 | – | Not Active | – | EC50 [3]: Not Active
COc1ccc(OCCN2CCN(C(=O)c3cc4c(OC)cccc4[nH]3)CC2)cc1 | < 4.00 | 5.28 | – | – | –
COc1ccc(OCCCN2CCN(C(=O)c3cc4ccccc4[nH]3)CC2)cc1 | – | – | – | – | EC50 [3]: Not Active
COc1ccc(C(=O)N2CCN(CCOc3cc(OC)cc(OC)c3)CC2)cc1 | < 4.30 | – | Not Active | – | EC50 [3]: Not Active
COc1ccc(SCCN2CCN(C(=O)c3cc4ccccc4[nH]3)CC2)cc1 | < 4.00 | – | Not Active | – | EC50 [3]: Not Active
COc1ccc(C(=O)N2CCN(CCOc3ccccc3OC)CC2)cc1 | – | – | – | 6.56 | –
O=C(c1cc2ccc(Cl)cc2[nH]1)N1CCN(CCOc2cccnc2)CC1 | – | 6.74 | – | – | IC50 [1]: Not Active
COc1ccc2cc(C(=O)N3CCN(CCOc4cccnc4)CC3)[nH]c2c1 | – | – | – | 8.19 | –
COc1ccc(OCCN(C)CCN(C)C(=O)c2ccc(OC)cc2)cc1 | – | – | – | – | EC50 [3]: Not Active
COc1ccc(OCCN2CCN(C(=O)c3cc4c(C)cccc4[nH]3)CC2)cc1 | – | – | – | 6.58 | –
COc1ccc(OCCN2CCN(C(=O)c3ccc(OC)cc3)C(C)C2)cc1 (stereo unspecified) | < 4.00 | 5.38 | – | – | –
Cc1cc(OCCN2CCN(C(=O)c3cc4ccccc4[nH]3)CC2)ccc1Cl | – | – | – | 6.94 | –
COc1ccc(OCCC2CCN(C(=O)c3ccc(OC)cc3)CC2)cc1 | – | – | Not Active | – | IC50 [1]: Not Active; EC50 [3]: Not Active
O=C(c1cc2cc(Cl)ccc2[nH]1)N1CCN(CCOc2cccnc2)CC1 | – | 5.85 | – | – | IC50 [1]: Not Active
COc1ccc(OCCN2CCN(C(=O)c3cc4ccc(Cl)cc4[nH]3)CC2)cc1 | – | – | – | 6.65 | –
Cc1c(C(=O)N2CCN(CCOc3cccnc3)CC2)[nH]c2ccccc12 | – | – | – | 7.10 | –

SMILES | pIC50 [1] | pEC50 [2] | EC50 [2] | pEC50 [3] | other results
COc1ccc(OCCN2CCN(C(=O)c3cc4ccc(C)cc4[nH]3)CC2)cc1 | – | 5.96 | – | 6.89 | IC50 [1]: Not Active
Cc1cccc2cc(C(=O)N3CCN(CCOc4cccnc4)CC3)[nH]c12 | – | – | – | 7.59 | –
O=C(c1cc2ccccc2s1)N1CCN(CCOc2cccnc2)CC1 | – | – | – | 7.88 | –
COc1ccc(OCCN2CCN(CC(=O)c3cc4ccccc4[nH]3)CC2)cc1 | – | – | Not Active | – | IC50 [1]: Not Active; EC50 [3]: Not Active
COc1ccc(N(C)CCN2CCN(C(=O)c3cc4ccccc4[nH]3)CC2)cc1 | < 4.00 | – | Not Active | – | –
COc1cccc(OCCN2CCN(C(=O)c3nc4ccccc4[nH]3)CC2)c1 | – | – | – | 6.55 | –
COc1ccc(OCCN2CCN(C(=O)c3cc4cccnc4[nH]3)CC2)cc1 | – | – | – | 6.78 | –
COc1ccc(OCCN2CCN(C(=O)c3ccccc3)CC2)cc1 | < 4.30 | – | Not Active | 6.26 | –
COc1cccc(OCCN2CCN(C(=O)c3cc4ccccc4[nH]3)CC2)c1 | – | – | – | 7.47 | –
O=C(c1cc2c(Cl)cccc2[nH]1)N1CCN(CCOc2cccnc2)CC1 | – | 6.66 | – | – | IC50 [1]: Not Active
COc1ccc(OCCN2CCN(C(=O)c3ccc4[nH]ccc4c3)CC2)cc1 | 5.34 | 5.60 | – | – | –
COc1ccc(OCCN2CCN(C(=O)c3cc4ccccc4s3)CC2)cc1 | – | – | – | 5.48 | –
COc1ccc(OCCN2CCN(C(=O)c3ccncc3)CC2)cc1 | – | – | Not Active | 4.66 | IC50 [1]: Not Active
O=C(c1cc2ccccc2[nH]1)N1CCN(CCOc2ccc([N+](=O)[O-])cc2)CC1 | – | – | Not Active | – | IC50 [1]: Not Active
O=C(c1cc2cccc(Cl)c2[nH]1)N1CCN(CCOc2cccnc2)CC1 | – | 6.21 | – | – | IC50 [1]: Not Active
COc1ccc(OCCN2CCN(C(=O)c3cc4ncccc4[nH]3)CC2)cc1 | – | < 4.00 | – | – | IC50 [1]: Not Active
COc1ccc(C(=O)N2CCN(CCOc3ccc(OC(F)(F)F)cc3)CC2)cc1 | < 4.30 | – | Not Active | – | EC50 [3]: Not Active
COc1ccc(OCCN2CCN(C(=O)c3ccccc3OC)CC2)cc1 | < 4.00 | – | Not Active | 5.60 | –
COc1ccc(OCCN2CCN(C(=O)c3ccc(OC)cn3)CC2)cc1 | < 4.00 | < 4.30 | – | 5.68 | –
COc1ccc(OCCN2CCN(C(=O)c3c[nH]c4ccccc34)CC2)cc1 | – | – | – | 6.68 | –

SMILES | pIC50 [1] | pEC50 [2] | EC50 [2] | pEC50 [3] | other results
O=C(c1n[nH]c2ccccc12)N1CCN(CCOc2cccnc2)CC1 | – | 5.39 | – | – | IC50 [1]: Not Active
COc1ccc(OCCN2CCN(C(=O)c3cc4cccc(C)c4[nH]3)CC2)cc1 | < 4.00 | 5.00 | – | 6.33 | –
COc1ccc(OCCC2CCN(C(=O)c3cc4ccccc4[nH]3)CC2)cc1 | – | – | Not Active | – | IC50 [1]: Not Active; EC50 [3]: Not Active
COc1ccc(OCCN2CCN(C(=O)c3cc4cc(Cl)ccc4[nH]3)CC2)cc1 | – | – | Not Active | – | IC50 [1]: Not Active
COc1ccc(OCCN2CCN(C(=O)c3cc4cccc(OC)c4[nH]3)CC2)cc1 | < 5.00 | 5.22 | – | 6.01 | –
O=C(c1cc2ccccc2[nH]1)N1CCN(CCOc2ccc3[nH]ccc3c2)CC1 | – | – | – | 7.22 | –
COc1ccc(C(=O)N2CCN(CCOc3cccc(OC)c3)CC2)cc1 | – | – | – | 7.01 | –
O=C(c1cc2ccncc2[nH]1)N1CCN(CCOc2cccnc2)CC1 | – | – | – | 7.09 | –
COc1ccc(OCCN2CCN(c3ccc(OC)cc3)CC2)cc1 | < 4.30 | – | Not Active | – | EC50 [3]: Not Active
COc1ccc(C(=O)N2CCN(CCOc3cccnc3)CC2)cc1 | < 4.00 | 5.54 | – | 7.77 | –
O=C(c1nc2ccccc2[nH]1)N1CCN(CCOc2cccnc2)CC1 | – | 5.62 | – | – | IC50 [1]: Not Active
Cc1cccc2[nH]c(C(=O)N3CCN(CCOc4cccnc4)CC3)cc12 | – | 6.74 | – | – | IC50 [1]: Not Active
COc1ccc(OCCN2CCN(C(=O)c3cccc(OC)c3)CC2)cc1 | – | – | – | 6.26 | –
O=C(c1cc2ccccc2[nH]1)N1CCN(CCOc2ccc3c(c2)OCO3)CC1 | – | – | – | 6.54 | –
COc1ccc(OCCCCN2CCN(C(=O)c3cc4ccccc4[nH]3)CC2)cc1 | – | – | – | – | EC50 [3]: Not Active
O=C(c1cc2ccccc2[nH]1)N1CCN(CCOc2ccc(Br)cc2)CC1 | < 4.00 | – | Not Active | – | –
COc1ccc(OCCN2CCN(C(=O)c3cc4cc(OC)ccc4[nH]3)CC2)cc1 | < 4.00 | 5.11 | – | 6.28 | –
COc1ccc2[nH]c(C(=O)N3CCN(CCOc4cccnc4)CC3)cc2c1 | – | 5.59 | – | – | IC50 [1]: Not Active
COc1ccc(OCC(C)N2CCN(C(=O)c3ccc(OC)cc3)CC2)cc1 (racemic) | < 4.00 | – | Not Active | – | –
